Experimental findings from EP0324130A2, “8-Glycine, 16-X, Des-19-Leucine-Calcitonin” (RORER INTERNATIONAL (OVERSEAS) INC. (a Delaware corporation), priority 1987, dated 1989) are described below.

Molecules are shown by their SMILES. Peptide text beside a SMILES is read from it.

This test has as its system serum calcium concentration. The settings on record: rat, in vivo, sc.

Experimental: Biological Assay of Calcitonin Analogs in Vivo
The biological potency of 8-glycine, 16-alanine des-19-leucine salmon calcitonin was determined by comparing the reduction of serum calcium concentration which followed administration by graded doses of Gly^8, Ala^16, des-Ley^19-SCT and synthetic salmon calcitonin standard. Rats were divided into four groups of seven animals, and each group was assigned at random to a dose of standard or test solution. Low and high doses were chosen from the linear portion of the dose-response curve. For the salmon calcitonin standard, the values were 0.7 and 2.1 ng. peptide/100 g. […] This does approximates 3 and 9 MU/100 g. […] Peptides were given by subcutaneous injection (0.2 ml/100 g. BW) and blood was withdrawn 1 hour later for serum calcium determination. Sera are processed and analyzed within two hours of collection.

In the case of `CC(C)C[C@H](NC(=O)CNC(=O)[C@@H]1CSSC[C@H](N)C(=O)N[C@@H](CO)C(=O)N[C@@H](CC(N)=O)C(=O)N[C@@H](CC(C)C)C(=O)N[C@@H](CO)C(=O)N[C@@H]([C@@H](C)O)C(=O)N1)C(=O)NCC(=O)N[C@@H](CCCCN)C(=O)N[C@@H](CC(C)C)C(=O)N[C@@H](CO)C(=O)N[C@@H](CCC(N)=O)C(=O)N[C@@H](CCC(=O)O)C(=O)N[C@@H](C)C(=O)N[C@@H](Cc1c[nH]cn1)C(=O)N[C@@H](CCCCN)C(=O)N[C@@H](CCC(N)=O)C(=O)N[C@H](C(=O)N[C@@H](Cc1ccc(O)cc1)C(=O)N1CCC[C@H]1C(=O)N[C@@H](CCCNC(=N)N)C(=O)N[C@H](C(=O)N[C@@H](CC(N)=O)C(=O)N[C@H](C(=O)NCC(=O)N[C@@H](CO)C(=O)NCC(=O)N[C@H](C(=O)N1CCC[C@H]1C(N)=O)[C@@H](C)O)[C@@H](C)O)[C@@H](C)O)[C@@H](C)O` [Gly^8, Ala^16, des-Leu'^9-SCT, [8-Glycine, 16-Alanine, des-19-Leucine] salmon calcitonin] (HELM PEPTIDE1{C.S.N.L.S.T.C.G.L.G.K.L.S.Q.E.A.H.K.Q.T.Y.P.R.T.N.T.G.S.G.T.P.[am]}$PEPTIDE1,PEPTIDE1,1:R3-7:R3$$$V2.0), the biological potency is on record as 2,500 IU/mg.
